Laboratory results reported in article PMC12533185 (Nature Communications, 2025).

Key:
[1] = system: mechanical loading PTOA mice; assay: Micro-CT: osteophyte size in PTOA mice; type: in vivo, mouse
[2] = system: mechanical loading PTOA mice; assay: Walking speed in PTOA mice; type: in vivo, mouse; conditions: after six weeks, MP 4 mg/kg weekly
[3] = system: mechanical loading PTOA mice; assay: Joint histology; type: in vivo, mouse; conditions: six weeks
[4] = system: mechanical loading PTOA mice; assay: OARSI score in PTOA mice; type: in vivo, mouse
Col2α1 mRNA = Col2α1 mRNA expression in ATDC5 cells; type: cell-based, mouse; conditions: 10 μg/ml recombinant insulin, 7 days

Compound | block of osteophytes formation and ectopic mineralization [1] | walking speed, % of initial level [2] [%] | joint histology [3] | OARSI score relative to MP&si-VPN@HA [4] [fold] | increase of Col2α1 expression (Col2α1 mRNA)
C[C@H]1C[C@@H]2[C@H]([C@@H](O)C[C@@]3(C)[C@H]2CC[C@]3(O)C(=O)CO)[C@@]2(C)C=CC(=O)C=C12 [MP, methylprednisolone] | Neither MP nor si-VPN-2 could significantly block osteophytes formation and ectopic mineralization | 18.22 | large proteoglycan loss and cartilage erosion | 5.67 | 
insulin: recombinant insulin used to induce chondrogenesis of ATDC5 cells |  |  |  |  | ~ 10 fold
